ChEMBL document CHEMBL1123349, “Analogues of 1,3-dipropyl-8-phenylxanthine: enhancement of selectivity at A1-adenosine receptors by aryl substituents” (J Med Chem, 1986)
Where “and” joins values, the source holds several entries; their conditions need not be identical. Equal values may be shown once.

Assays:
[1] = target: T1, Adenosine receptor A1 (Rattus norvegicus, UniProt P25099); assay: Binding affinity against A1 adenosine receptors of the central nervous system
T1 sequence (P25099 whole entry): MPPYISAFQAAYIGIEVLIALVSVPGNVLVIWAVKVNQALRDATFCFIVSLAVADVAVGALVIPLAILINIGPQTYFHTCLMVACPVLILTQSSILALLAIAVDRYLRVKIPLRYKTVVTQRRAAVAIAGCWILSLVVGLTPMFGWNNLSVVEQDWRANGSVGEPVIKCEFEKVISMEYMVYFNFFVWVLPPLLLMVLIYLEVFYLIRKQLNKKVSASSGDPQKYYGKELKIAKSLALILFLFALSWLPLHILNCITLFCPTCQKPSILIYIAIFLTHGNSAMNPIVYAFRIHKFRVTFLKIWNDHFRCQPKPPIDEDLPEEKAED

[2] = target: Adenosine receptors; A1 & A2 (Rattus norvegicus) (UniProt P29276+P25099+P30543); assay: Selectivity ratio was expressed as the ratio of binding affinity towards Adenosine A2 receptor to that of Adenosine A1 receptor in rat
[3] = target: Adenosine A2 receptor (Rattus norvegicus, UniProt P29276+P30543); assay: Binding affinity against A2 adenosine receptors of the central nervous system; format: protein assay

| Ki [1] | Ratio [2] | Ki [3] | Compound |
| --- | --- | --- | --- |
| 51 nM | – | – | CCCn1c(=O)c2[nH]c(-c3ccc(F)cc3F)nc2n(CCC)c1=O |
| 11 nM | 89 | 980 nM | CCCn1c(=O)c2[nH]c(-c3ccc(OC)cc3O)nc2n(CCC)c1=O |
| – | 400 | 1000 nM | CCCn1c(=O)c2nc(-c3ccc(Cl)cc3N)[nH]c2n(CCC)c1=O |
| – | 3.9 | 140 nM | CCCn1c(=O)c2nc(-c3ccc(O)c(Cl)c3)[nH]c2n(CCC)c1=O |
| 7 nM and 25 nM | – | 72 nM and 55 nM | CCCn1c(=O)c2nc(-c3ccc(C(N)=O)cc3)[nH]c2n(CCC)c1=O |
| 8 nM | 1.5 | 12 nM | CCCn1c(=O)c2nc(-c3ccc(OC(C)=O)cc3)[nH]c2n(CCC)c1=O |
| 14 nM | – | – | CCCn1c(=O)c2nc(-c3ccc(OC)cc3)[nH]c2n(CCC)c1=O |
| 36 nM | – | – | CCCn1c(=O)c2[nH]c(-c3ccc(O)c(Cl)c3)nc2n(CCC)c1=O |
| 33 nM | 6.4 | 210 nM | CCCn1c(=O)c2nc(-c3cccc(O)c3O)[nH]c2n(CCC)c1=O |
| 45 nM | 2.2 | 100 nM | CCCn1c(=O)c2nc(-c3ccc(N(C)C)cc3)[nH]c2n(CCC)c1=O |
| 8.5 nM | 15 | 115 nM | CCCn1c(=O)c2nc(-c3ccc(S(N)(=O)=O)cc3)[nH]c2n(CCC)c1=O |
| 15 nM | – | – | CCCn1c(=O)c2[nH]c(-c3ccc(O)cc3O)nc2n(CCC)c1=O |
| 360 nM | 9.7 | 3500 nM | CCCn1c(=O)c2nc(-c3cc(O)ccc3O)[nH]c2n(CCC)c1=O |
| 420 nM | > 7 | > 3000 nM | CCCn1c(=O)c2nc(-c3ccc(Cl)cc3OC)[nH]c2n(CCC)c1=O |
| 4.6 nM | 2.8 | 13 nM | CCCn1c(=O)c2nc(-c3ccc(N)cc3N)[nH]c2n(CCC)c1=O |
| – | 5.9 | 290 nM | CCCn1c(=O)c2nc(-c3ccc(F)cc3F)[nH]c2n(CCC)c1=O |
| 27 nM | 1 | 28 nM | CCCn1c(=O)c2nc(-c3ccc(N)cc3)[nH]c2n(CCC)c1=O |
| – | 3.4 | 710 nM | CCCn1c(=O)c2nc(-c3ccc(S(=O)(=O)O)cc3)[nH]c2n(CCC)c1=O |
